Measured values reported in the NIST ThermoML archive (doi:10.1021/je900596d).
± gives the expanded uncertainty stated by the source.

Settings: Vibrating tube method

FC(F)=C(F)C(F)(F)F [hexafluoropropene]
Settings	mass density [kg/m3]
357.01 K, 9852.5 kPa, Liquid	1135.74 ± 1.2
357.01 K, 9892.6 kPa, Liquid	1136.38 ± 1.2
357.01 K, 9933 kPa, Liquid	1137.03 ± 1.2
357.01 K, 9973.2 kPa, Liquid	1137.69 ± 1.2
357.06 K, 1.6 kPa, Fluid (supercritical or subcritical phases)	0.18 ± 0.03
357.06 K, 3.4 kPa, Fluid (supercritical or subcritical phases)	0.25 ± 0.03
357.06 K, 4.2 kPa, Fluid (supercritical or subcritical phases)	0.26 ± 0.03
357.06 K, 4.9 kPa, Fluid (supercritical or subcritical phases)	0.29 ± 0.03
357.06 K, 6.3 kPa, Fluid (supercritical or subcritical phases)	0.31 ± 0.03
357.06 K, 6.6 kPa, Fluid (supercritical or subcritical phases)	0.32 ± 0.03
357.06 K, 7 kPa, Fluid (supercritical or subcritical phases)	0.35 ± 0.03
357.06 K, 7.4 kPa, Fluid (supercritical or subcritical phases)	0.43 ± 0.03
357.06 K, 9.1 kPa, Fluid (supercritical or subcritical phases)	0.47 ± 0.03
357.06 K, 9.5 kPa, Fluid (supercritical or subcritical phases)	0.49 ± 0.03
357.06 K, 11 kPa, Fluid (supercritical or subcritical phases)	0.56 ± 0.03
357.06 K, 12.4 kPa, Fluid (supercritical or subcritical phases)	0.6 ± 0.03
357.06 K, 13.5 kPa, Fluid (supercritical or subcritical phases)	0.66 ± 0.03
357.06 K, 14.9 kPa, Fluid (supercritical or subcritical phases)	0.76 ± 0.03
357.06 K, 15.9 kPa, Fluid (supercritical or subcritical phases)	0.79 ± 0.03
357.06 K, 17 kPa, Fluid (supercritical or subcritical phases)	0.85 ± 0.03
357.06 K, 19.1 kPa, Fluid (supercritical or subcritical phases)	0.98 ± 0.03
357.06 K, 21.6 kPa, Fluid (supercritical or subcritical phases)	1.08 ± 0.03
357.06 K, 22.7 kPa, Fluid (supercritical or subcritical phases)	1.11 ± 0.03
357.06 K, 24 kPa, Fluid (supercritical or subcritical phases)	1.15 ± 0.03
357.06 K, 25.1 kPa, Fluid (supercritical or subcritical phases)	1.25 ± 0.03
357.06 K, 26.3 kPa, Fluid (supercritical or subcritical phases)	1.3 ± 0.03
357.06 K, 27.3 kPa, Fluid (supercritical or subcritical phases)	1.36 ± 0.03
357.06 K, 28.4 kPa, Fluid (supercritical or subcritical phases)	1.4 ± 0.03
357.06 K, 29.7 kPa, Fluid (supercritical or subcritical phases)	1.46 ± 0.03
357.06 K, 30.8 kPa, Fluid (supercritical or subcritical phases)	1.51 ± 0.03
357.06 K, 31.8 kPa, Fluid (supercritical or subcritical phases)	1.61 ± 0.03
357.06 K, 34 kPa, Fluid (supercritical or subcritical phases)	1.66 ± 0.03
357.06 K, 35.1 kPa, Fluid (supercritical or subcritical phases)	1.71 ± 0.03
357.06 K, 36.4 kPa, Fluid (supercritical or subcritical phases)	1.75 ± 0.03
357.06 K, 37.5 kPa, Fluid (supercritical or subcritical phases)	1.84 ± 0.03
357.06 K, 38.5 kPa, Fluid (supercritical or subcritical phases)	1.93 ± 0.03
357.06 K, 39.6 kPa, Fluid (supercritical or subcritical phases)	1.96 ± 0.03
357.06 K, 40.6 kPa, Fluid (supercritical or subcritical phases)	2.02 ± 0.03
357.06 K, 48 kPa, Fluid (supercritical or subcritical phases)	2.38 ± 0.03
357.06 K, 58.6 kPa, Fluid (supercritical or subcritical phases)	2.86 ± 0.03
357.06 K, 69.5 kPa, Fluid (supercritical or subcritical phases)	3.37 ± 0.03
357.06 K, 80.9 kPa, Fluid (supercritical or subcritical phases)	3.92 ± 0.03
357.06 K, 92.8 kPa, Fluid (supercritical or subcritical phases)	4.57 ± 0.03
357.06 K, 104.1 kPa, Fluid (supercritical or subcritical phases)	5.19 ± 0.03
357.06 K, 115 kPa, Fluid (supercritical or subcritical phases)	5.66 ± 0.03
357.06 K, 125.7 kPa, Fluid (supercritical or subcritical phases)	6.22 ± 0.03
357.06 K, 136.4 kPa, Fluid (supercritical or subcritical phases)	6.83 ± 0.03
357.06 K, 148.3 kPa, Fluid (supercritical or subcritical phases)	7.41 ± 0.04
357.06 K, 159.2 kPa, Fluid (supercritical or subcritical phases)	8.05 ± 0.04
357.06 K, 170 kPa, Fluid (supercritical or subcritical phases)	8.65 ± 0.04
357.06 K, 180.8 kPa, Fluid (supercritical or subcritical phases)	9.19 ± 0.04
357.06 K, 191.6 kPa, Fluid (supercritical or subcritical phases)	9.77 ± 0.04
357.06 K, 206.8 kPa, Fluid (supercritical or subcritical phases)	10.67 ± 0.04
357.06 K, 232.7 kPa, Fluid (supercritical or subcritical phases)	11.91 ± 0.04
357.06 K, 245.6 kPa, Fluid (supercritical or subcritical phases)	12.63 ± 0.04
357.06 K, 258.5 kPa, Fluid (supercritical or subcritical phases)	13.31 ± 0.04
357.06 K, 271.2 kPa, Fluid (supercritical or subcritical phases)	14.01 ± 0.04
357.06 K, 284 kPa, Fluid (supercritical or subcritical phases)	14.69 ± 0.04
357.06 K, 296.8 kPa, Fluid (supercritical or subcritical phases)	15.39 ± 0.04
357.06 K, 309.5 kPa, Fluid (supercritical or subcritical phases)	16.12 ± 0.04
357.06 K, 322.1 kPa, Fluid (supercritical or subcritical phases)	16.71 ± 0.04
357.06 K, 334.9 kPa, Fluid (supercritical or subcritical phases)	17.44 ± 0.04
357.06 K, 347.5 kPa, Fluid (supercritical or subcritical phases)	18.11 ± 0.04
357.06 K, 360.2 kPa, Fluid (supercritical or subcritical phases)	18.86 ± 0.04
357.06 K, 372.7 kPa, Fluid (supercritical or subcritical phases)	19.48 ± 0.04
357.06 K, 385.4 kPa, Fluid (supercritical or subcritical phases)	20.16 ± 0.04
357.06 K, 401.9 kPa, Fluid (supercritical or subcritical phases)	21.1 ± 0.04
357.06 K, 415.8 kPa, Fluid (supercritical or subcritical phases)	21.9 ± 0.05
357.06 K, 430.3 kPa, Fluid (supercritical or subcritical phases)	22.74 ± 0.05
357.06 K, 445 kPa, Fluid (supercritical or subcritical phases)	23.53 ± 0.05
357.06 K, 459.8 kPa, Fluid (supercritical or subcritical phases)	24.37 ± 0.05
357.06 K, 474.6 kPa, Fluid (supercritical or subcritical phases)	25.15 ± 0.05
357.06 K, 489.6 kPa, Fluid (supercritical or subcritical phases)	26 ± 0.05
357.06 K, 504.5 kPa, Fluid (supercritical or subcritical phases)	26.95 ± 0.05
357.06 K, 519.5 kPa, Fluid (supercritical or subcritical phases)	27.84 ± 0.05
357.06 K, 534.4 kPa, Fluid (supercritical or subcritical phases)	28.66 ± 0.05
357.06 K, 549.4 kPa, Fluid (supercritical or subcritical phases)	29.55 ± 0.05
357.06 K, 564.2 kPa, Fluid (supercritical or subcritical phases)	30.41 ± 0.05
357.06 K, 579 kPa, Fluid (supercritical or subcritical phases)	31.28 ± 0.05
357.06 K, 593.8 kPa, Fluid (supercritical or subcritical phases)	32.12 ± 0.06
357.06 K, 604.8 kPa, Fluid (supercritical or subcritical phases)	32.81 ± 0.06
357.06 K, 619.6 kPa, Fluid (supercritical or subcritical phases)	33.65 ± 0.06
357.06 K, 634.3 kPa, Fluid (supercritical or subcritical phases)	34.49 ± 0.06
357.06 K, 648.9 kPa, Fluid (supercritical or subcritical phases)	35.43 ± 0.06
357.06 K, 663.4 kPa, Fluid (supercritical or subcritical phases)	36.27 ± 0.06
357.06 K, 677.9 kPa, Fluid (supercritical or subcritical phases)	37.14 ± 0.06
357.06 K, 692.4 kPa, Fluid (supercritical or subcritical phases)	37.98 ± 0.06
357.06 K, 706.7 kPa, Fluid (supercritical or subcritical phases)	38.87 ± 0.06
357.06 K, 721 kPa, Fluid (supercritical or subcritical phases)	39.69 ± 0.06
357.06 K, 735.2 kPa, Fluid (supercritical or subcritical phases)	40.55 ± 0.07
357.06 K, 749.2 kPa, Fluid (supercritical or subcritical phases)	41.45 ± 0.07
357.06 K, 763.3 kPa, Fluid (supercritical or subcritical phases)	42.35 ± 0.07
357.06 K, 777.3 kPa, Fluid (supercritical or subcritical phases)	43.14 ± 0.07
357.06 K, 791.2 kPa, Fluid (supercritical or subcritical phases)	44.03 ± 0.07
357.06 K, 805.1 kPa, Fluid (supercritical or subcritical phases)	44.87 ± 0.07
357.06 K, 818.9 kPa, Fluid (supercritical or subcritical phases)	45.78 ± 0.07
357.06 K, 832.6 kPa, Fluid (supercritical or subcritical phases)	46.65 ± 0.07
357.06 K, 846.3 kPa, Fluid (supercritical or subcritical phases)	47.44 ± 0.07
357.06 K, 859.8 kPa, Fluid (supercritical or subcritical phases)	48.34 ± 0.08
357.06 K, 873.5 kPa, Fluid (supercritical or subcritical phases)	49.21 ± 0.08
357.06 K, 887 kPa, Fluid (supercritical or subcritical phases)	50.07 ± 0.08
357.06 K, 900.7 kPa, Fluid (supercritical or subcritical phases)	50.9 ± 0.08
357.06 K, 927.4 kPa, Fluid (supercritical or subcritical phases)	52.68 ± 0.08
357.06 K, 940.7 kPa, Fluid (supercritical or subcritical phases)	53.53 ± 0.08
357.06 K, 953.9 kPa, Fluid (supercritical or subcritical phases)	54.39 ± 0.08
357.06 K, 966.4 kPa, Fluid (supercritical or subcritical phases)	55.2 ± 0.08
357.06 K, 980.4 kPa, Fluid (supercritical or subcritical phases)	56.19 ± 0.09
357.06 K, 992.5 kPa, Fluid (supercritical or subcritical phases)	56.92 ± 0.09
357.06 K, 1019.3 kPa, Fluid (supercritical or subcritical phases)	58.76 ± 0.09
357.06 K, 1047.3 kPa, Fluid (supercritical or subcritical phases)	60.62 ± 0.09
357.06 K, 1075 kPa, Fluid (supercritical or subcritical phases)	62.53 ± 0.09
357.06 K, 1101.6 kPa, Fluid (supercritical or subcritical phases)	64.29 ± 0.1
357.06 K, 1126.7 kPa, Fluid (supercritical or subcritical phases)	66.03 ± 0.1
357.06 K, 1151 kPa, Fluid (supercritical or subcritical phases)	67.74 ± 0.1
357.06 K, 1176.3 kPa, Fluid (supercritical or subcritical phases)	69.58 ± 0.1
357.06 K, 1201.9 kPa, Fluid (supercritical or subcritical phases)	71.4 ± 0.1
357.06 K, 1228.4 kPa, Fluid (supercritical or subcritical phases)	73.29 ± 0.11
357.06 K, 1259 kPa, Fluid (supercritical or subcritical phases)	75.66 ± 0.11
357.06 K, 1289.5 kPa, Fluid (supercritical or subcritical phases)	77.81 ± 0.11
357.06 K, 1322.3 kPa, Fluid (supercritical or subcritical phases)	80.32 ± 0.12
357.06 K, 1338.6 kPa, Fluid (supercritical or subcritical phases)	81.39 ± 0.12
357.06 K, 1356.1 kPa, Fluid (supercritical or subcritical phases)	82.86 ± 0.12
357.06 K, 1372.3 kPa, Fluid (supercritical or subcritical phases)	84.1 ± 0.12
357.06 K, 1389.3 kPa, Fluid (supercritical or subcritical phases)	85.41 ± 0.12
357.06 K, 1417.8 kPa, Fluid (supercritical or subcritical phases)	87.61 ± 0.13
357.06 K, 1448.6 kPa, Fluid (supercritical or subcritical phases)	89.98 ± 0.13
357.06 K, 1476.5 kPa, Fluid (supercritical or subcritical phases)	92.14 ± 0.14
357.06 K, 1508.7 kPa, Fluid (supercritical or subcritical phases)	94.88 ± 0.14
357.06 K, 1525.6 kPa, Fluid (supercritical or subcritical phases)	96.25 ± 0.14
357.06 K, 1543.7 kPa, Fluid (supercritical or subcritical phases)	97.72 ± 0.14
357.06 K, 1568 kPa, Fluid (supercritical or subcritical phases)	99.77 ± 0.15
357.06 K, 1585.8 kPa, Fluid (supercritical or subcritical phases)	101.24 ± 0.15
357.06 K, 1616.4 kPa, Fluid (supercritical or subcritical phases)	103.7 ± 0.15
357.06 K, 1633.9 kPa, Fluid (supercritical or subcritical phases)	105.22 ± 0.16
